Laboratory results published in US7410806B2, “Compound for inhibiting the influx of polymorphonuclear leukocytes (PMNs) in a tissue, its selection, pharmaceutical compositions and use” (Fornix Biosciences N.V., priority 1999, dated 2008).

Tests used:
[1] = system: inflammatory cells in the bronchial-alveolar liquid; format: in vivo, C57B1/6J mice; details: for Number PMNs in bronchial-alveolar liquid / Total number infl. cells in bronchial-alveolar liquid: substance alone, aerosol on day 0, 2 and 7, 24 h after final treatment (day 8), n=3
Description: (§1) On day 0, 2 and 7, two groups C75Bl/6J mice received 30 minutes' treatment with an aerosol (in an atomizing chamber as described in example 1) comprising (i) vehicle (phosphate-buffered physiological salt solution), (ii) N—AcPGP (0.4 mg/ml) or (iii) N—AcPGP (0.4 mg/ml) and 4-RTR (1 mg/ml). 30 minutes prior to the aerosol, the mice of group (i) and (ii) received intranasal vehicle and the mice of group (iii), 4RTR (1 mg/ml). […] (see Table III).

[2] = system: alveolar dilatation (lung emphysema); assay: Lung emphysema induced by N-AcPGP: mean linear intercept (Lm); format: in vivo, C75Bl/6J mice; details: N-AcPGP aerosol day 0, 2, 7; lungs on day 21; FIG. 1
Description: as §1
On day 21 the mice of the second group (which on day 0, 2, and 7 were treated in the same manner as the mice of the first group), were sacrificed by means of an overdose of anaesthetic (Nembutal) and the lungs were isolated and fixed by filling the lungs with Carnoy's fixative under a liquid pressure of 25 cm. The lungs were prepared for histological analysis. The mean linear intercept (Lm), indicative for alveolar dilatation, was calculated by placing a grid over the illustrations of 5 separate fields (300× magnification) per mouse lung. The total length of the lines was divided by the number of intercepts, resulting in the Lm, providing a measure for the average size of the bronchial volume of the lung.

[3] = system: PGP-induced PMN influx in the mouse lung; assay: PGP-induced PMN influx in the mouse lung (lung-wash cell counts); format: in vivo, Balb/c mice; details: for Eos in lung-wash liquid / Monos in lung-wash liquid / Neutros in lung-wash liquid / Total cells in lung-wash liquid: PBS pre-treatment, atomization of the substance (10^-3 M, 30 min), 5 h after onset, ± SEM; for Influx of neutrophilic and eosinophilic granulocytes in the lungs: atomization of the substance
Description: Solutions were prepared of N—Ac-PGP (0.36 mg/ml; 10^−3 M) and N-methyl-PGP (0.32 mg/ml; 10^−3 M) in phosphate-buffered physiological salt (PBS). In an atomizing chamber, 6-8 weeks old Balb/c mice (groups of 4 mice) were subjected for 30 minutes to either N-acetyl-PGP or N-methyl-PGP. Control mice only received PBS. One hour prior to subjection in the atomizing chamber and one hour after the start of subjection each mouse received 50 μl of 1 mg/ml 4RTR. The treatment is outlined in the Table I below.
5 Hours after the onset of subjection the mice were sacrificed by administering an overdose of Nembutal. After the application of a tracheal canula the lungs were washed with 4 ml PBS. The lung-wash liquid was centrifuged (5 min.; 4° C.; 580 g) and the cell pellet was taken up in 150 μl PBS. The cells were counted under the microscope. To distinguish between neutrophilic and eosinophilic granulocytes and mononuclear cells (haematoxylin/eosin dye, H/E dye: Diff-Quick, Merz & Dade, A. G. Dübingen, Switzerland), the cytospin technique was applied (Buckley, T. L. and Nijkamp, F. P., “Airways hyperreactivity and cellular accumulation in a delayed-type hypersensitivity reaction in the mouse: modulation by capsaicin-sensitive nerves”. Am. J. Respir. Crit. Care Med. 149: 400-407 (1994)).

Row | Substance | Number PMNs in bronchial-alveolar liquid [1] | Total number infl. cells in bronchial-alveolar liquid [1] | Mean linear intercept (Lm), indicative for alveolar dilatation [2] | Eos in lung-wash liquid [3] | Monos in lung-wash liquid [3] | Neutros in lung-wash liquid [3] | Total cells in lung-wash liquid [3] | Influx of neutrophilic and eosinophilic granulocytes in the lungs [3] | Increase of the total number of inflammatory cells in the bronchial-alveolar washing liquid in comparison with the vehicle control ([1]; N-AcPGP 0.4 mg/ml aerosol day 0, 2, 7, day 8) [fold]
1 | FMLP | 10.7± 3 ×10^5 | 61 ± 5 ×10^5 | – | – | – | – | – | – | –
2 | N-acetyl-Pro-Gly-Pro [N-AcPGP] | 11.7 ± 0.8 ×10^5 | 55 ± 1 ×10^5 | significant increase | 1.1 ± 0.6 ×10^4 cells/ml | 28.3 ± 8.6 ×10^4 cells/ml | 20.1 ± 7.5 ×10^4 cells/ml | 49.5 ± 3.1 ×10^4 cells/ml | results in the influx of neutrophilic and eosinophilic granulocytes in the lungs | 2
3 | N-methyl-Pro-Gly-Pro [N-methylPGP] | – | – | – | 0.2 ± 0.1 ×10^4 cells/ml | 33.9 ± 3.4 ×10^4 cells/ml | 11.9 ± 3.6 ×10^4 cells/ml | 46.1 ± 3.2 ×10^4 cells/ml | results in the influx of neutrophilic and eosinophilic granulocytes in the lungs | –
